Measurements: patent publication US20080207705A1, “Heteroaryl-Imidazole Derivatives as Cannabinoid CB1 Receptor Antagonists” (Green Cross Corporation, priority 2007, published 2008)

Target: T1, rat CB-1 receptor (Rattus norvegicus, UniProt P20272)
T1 construct: The tissue obtained from the brain of SD rats was homogenized; from tissue; host or cells: brain of SD rats (membrane pellet of homogenate)
Assay: rat CB-1 receptor binding protocol with [3H]CP-55940
Conditions: not given

T1 sequence (P20272 whole entry): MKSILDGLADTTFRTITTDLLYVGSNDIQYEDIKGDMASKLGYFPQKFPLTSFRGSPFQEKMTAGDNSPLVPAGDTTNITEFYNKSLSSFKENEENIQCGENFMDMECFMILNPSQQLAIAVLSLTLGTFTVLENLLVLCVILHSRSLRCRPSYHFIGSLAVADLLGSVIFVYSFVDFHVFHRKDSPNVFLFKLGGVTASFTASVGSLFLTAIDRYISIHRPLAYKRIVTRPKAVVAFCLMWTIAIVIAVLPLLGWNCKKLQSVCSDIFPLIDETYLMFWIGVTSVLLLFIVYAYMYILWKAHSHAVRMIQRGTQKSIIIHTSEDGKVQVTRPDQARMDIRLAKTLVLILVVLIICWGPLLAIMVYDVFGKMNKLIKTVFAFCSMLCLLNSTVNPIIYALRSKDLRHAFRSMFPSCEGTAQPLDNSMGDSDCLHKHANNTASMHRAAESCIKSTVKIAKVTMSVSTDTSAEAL

SMILES	IC50 [µM]
CCc1c(-c2nnc(C3(c4ccc(Cl)cc4)CC3)o2)nc(-c2ccc(Cl)cc2Cl)n1-c1ccc(Br)cc1 [Example 40, 2-(1-(4-Bromophenyl)-2-(2,4-dichlorophenyl)-5-ethyl-1H-imidazol-4-yl)-5-(1-(4-chlorophenyl)cyclopropyl)-1,3,4-oxadiazole]	0.00905
CCc1c(-c2nnc(C3(c4ccc(OC)cc4)CC3)o2)nc(-c2ccc(Cl)cc2Cl)n1-c1ccc(Br)cc1 [Example 42, 2-(1-(4-Bromophenyl)-2-(2,4-dichlorophenyl)-5-ethyl-1H-imidazol-4-yl)-5-(1-(4-methoxyphenyl)cyclopropyl)-1,3,4-oxadiazole]	0.0186
CCc1c(-c2nnc(C3(c4ccc(C)cc4)CC3)o2)nc(-c2ccc(Cl)cc2Cl)n1-c1ccc(Br)cc1 [Example 43, 2-(1-(4-Bromophenyl)-2-(2,4-dichlorophenyl)-5-ethyl-1H-imidazol-4-yl)-5-(1-p-tolylcyclopropyl)-1,3,4-oxadiazole]	0.00838
CCc1c(-c2nnc(C3(c4ccc(Cl)cc4Cl)CC3)o2)nc(-c2ccc(Cl)cc2Cl)n1-c1ccc(Br)cc1 [Example 44, 2-(1-(4-Bromophenyl)-2-(2,4-dichlorophenyl)-5-ethyl-1H-imidazol-4-yl)-5-(1-(2,4-dichlorophenyl)cyclopropyl)-1,3,4-oxadiazole]	0.00805
CCc1c(-c2nnc(C3(C(F)(F)F)CCC3)o2)nc(-c2ccc(Cl)cc2Cl)n1-c1ccc(Br)cc1 [Example 50, 2-(1-(4-Bromophenyl)-2-(2,4-dichlorophenyl)-5-ethyl-1H-imidazol-4-yl)-5-(1-(trifluoromethyl)cyclobutyl)-1,3,4-oxadiazole]	0.00956
Cc1c(-c2nnc(C(C)(C)C)o2)nc(-c2ccccc2Cl)n1-c1ccc(Br)cc1 [Example 51, 2-(1-(4-Bromophenyl)-2-(2-chlorophenyl)-5-methyl-1H-imidazol-4-yl)-5-tert-butyl-1,3,4-oxadiazole]	0.0317
Cc1c(-c2nnc(C3(C(F)(F)F)CCC3)o2)nc(-c2ccccc2Cl)n1-c1ccc(Br)cc1 [Example 53, 2-(1-(4-Bromophenyl)-2-(2-chlorophenyl)-5-methyl-1H-imidazol-4-yl)-5-(1-(trifluoromethyl)cyclobutyl)-1,3,4-oxadiazole]	0.0114
CCc1c(-c2nnc(C3(C(F)(F)F)CCC3)o2)nc(-c2ccccc2Cl)n1-c1ccc(Br)cc1 [Example 57, 2-(1-(4-Bromophenyl)-2-(2-chlorophenyl)-5-ethyl-1H-imidazol-4-yl)-5-(1-(trifluoromethyl)cyclobutyl)-1,3,4-oxadiazole]	0.0134
FC(F)(F)C1(c2nnc(-c3nc(-c4ccc(Cl)cc4Cl)n(-c4ccc(Br)cc4)c3Cn3cncn3)o2)CCC1 [Example 76, 2-(5-((1H-1,2,4-Triazol-1-yl)methyl)-1-(4-bromophenyl)-2-(2,4-dichlorophenyl)-1H-imidazol-4-yl)-5-(1-(trifluoromethyl)cyclobutyl)-1,3,4-oxadiazole]	0.00395

Same assay, conditions: [3H]CP-55940, brain tissue of SD rats, 30 °C for 60 min; read-out: IC50

IC50 [µM]	SMILES
0.0189	CCCc1c(-c2nnc(C(C)(C)C)o2)nc(-c2ccc(Cl)cc2Cl)n1-c1ccc(Cl)cc1 [Example 35, 2-tert-Butyl-5-(1-(4-chlorophenyl)-2-(2,4-dichlorophenyl)-5-propyl-1H-imidazol-4-yl)-1,3,4-oxadiazole]
0.0601	CCCc1c(-c2nnc(C3CCC3)o2)nc(-c2ccc(Cl)cc2Cl)n1-c1ccc(Cl)cc1 [Example 36, 2-(1-(4-Chlorophenyl)-2-(2,4-dichlorophenyl)-5-propyl-1H-imidazol-4-yl)-5-cyclobutyl-1,3,4-oxadiazole]
0.0151	CCCc1c(-c2nnc(C3(c4ccc(Cl)cc4)CC3)o2)nc(-c2ccc(Cl)cc2Cl)n1-c1ccc(Cl)cc1 [Example 37, 2-(1-(4-Chlorophenyl)-2-(2,4-dichlorophenyl)-5-propyl-1H-imidazol-4-yl)-5-(1-(4-chlorophenyl)cyclopropyl)-1,3,4-oxadiazole]
0.0117	CCCc1c(-c2nnc(C3(c4ccc(Cl)cc4)CCC3)o2)nc(-c2ccc(Cl)cc2Cl)n1-c1ccc(Cl)cc1 [Example 38, 2-(1-(4-Chlorophenyl)-2-(2,4-dichlorophenyl)-5-propyl-1H-imidazol-4-yl)-5-(1-(4-chlorophenyl)cyclobutyl)-1,3,4-oxadiazole]
0.0869	CCCc1c(-c2nnc(C3CCCCC3)o2)nc(-c2ccc(Cl)cc2Cl)n1-c1ccc(Cl)cc1 [Example 39, 2-(1-(4-Chlorophenyl)-2-(2,4-dichlorophenyl)-5-propyl-1H-imidazol-4-yl)-5-cyclohexyl-1,3,4-oxadiazole]
0.0136	CCc1c(-c2nnc(C3(c4ccc(Cl)cc4)CCC3)o2)nc(-c2ccc(Cl)cc2Cl)n1-c1ccc(Br)cc1 [Example 41, 2-(1-(4-Bromophenyl)-2-(2,4-dichlorophenyl)-5-ethyl-1H-imidazol-4-yl)-5-(1-(4-chlorophenyl)cyclobutyl)-1,3,4-oxadiazole]
0.0114	CCc1c(-c2nnc(C3(c4ccc(Cl)cc4)CCCC3)o2)nc(-c2ccc(Cl)cc2Cl)n1-c1ccc(Br)cc1 [Example 45, 2-(1-(4-Bromophenyl)-2-(2,4-dichlorophenyl)-5-ethyl-1H-imidazol-4-yl)-5-(1-(4-chlorophenyl)cyclopentyl)-1,3,4-oxadiazole]
0.0156	Cc1c(-c2nnc(C3(C(F)(F)F)CC3)o2)nc(-c2ccc(Cl)cc2Cl)n1-c1ccc(Br)cc1 [Example 46, 2-(1-(4-Bromophenyl)-2-(2,4-dichlorophenyl)-5-methyl-1H-imidazol-4-yl)-5-(1-(trifluoromethyl)cyclopropyl)-1,3,4-oxadiazole]
0.0276	Cc1c(-c2nnc(C3(C(F)(F)F)CCC3)o2)nc(-c2ccc(Cl)cc2Cl)n1-c1ccc(Br)cc1 [Example 47, 2-(1-(4-Bromophenyl)-2-(2,4-dichlorophenyl)-5-methyl-1H-imidazol-4-yl)-5-(1-(trifluoromethyl)cyclobutyl)-1,3,4-oxadiazole]
0.0187	Cc1c(-c2nnc(C3(c4ccc(Cl)cc4)CC3)o2)nc(-c2ccc(Cl)cc2Cl)n1-c1ccc(Br)cc1 [Example 48, 2-(1-(4-Bromophenyl)-2-(2,4-dichlorophenyl)-5-methyl-1H-imidazol-4-yl)-5-(1-(4-chlorophenyl)cyclopropyl)-1,3,4-oxadiazole]
0.0167	CCc1c(-c2nnc(C3(C(F)(F)F)CC3)o2)nc(-c2ccc(Cl)cc2Cl)n1-c1ccc(Br)cc1 [Example 49, 2-(1-(4-Bromophenyl)-2-(2,4-dichlorophenyl)-5-ethyl-1H-imidazol-4-yl)-5-(1-(trifluoromethyl)cyclopropyl)-1,3,4-oxadiazole]
0.0186	Cc1c(-c2nnc(C3(C(F)(F)F)CC3)o2)nc(-c2ccccc2Cl)n1-c1ccc(Br)cc1 [Example 52, 2-(1-(4-Bromophenyl)-2-(2-chlorophenyl)-5-methyl-1H-imidazol-4-yl)-5-(1-(trifluoromethyl)cyclopropyl)-1,3,4-oxadiazole]
0.0147	CCc1c(-c2nnc(C(C)(C)C)o2)nc(-c2ccccc2Cl)n1-c1ccc(Br)cc1 [Example 55, 2-(1-(4-Bromophenyl)-2-(2-chlorophenyl)-5-ethyl-1H-imidazol-4-yl)-5-tert-butyl-1,3,4-oxadiazole]
0.0201	CCc1c(-c2nnc(C3(C(F)(F)F)CC3)o2)nc(-c2ccccc2Cl)n1-c1ccc(Br)cc1 [Example 56, 2-(1-(4-Bromophenyl)-2-(2-chlorophenyl)-5-ethyl-1H-imidazol-4-yl)-5-(1-(trifluoromethyl)cyclopropyl)-1,3,4-oxadiazole]
0.0103	CCc1c(-c2nnc(C3(c4ccc(Cl)cc4)CC3)o2)nc(-c2ccccc2Cl)n1-c1ccc(Br)cc1 [Example 58, 2-(1-(4-Bromophenyl)-2-(2-chlorophenyl)-5-ethyl-1H-imidazol-4-yl)-5-(1-(4-chlorophenyl)cyclopropyl)-1,3,4-oxadiazole]
0.00521	CC(C)(C)c1nnc(-c2nc(-c3ccc(Cl)cc3Cl)n(-c3ccc(Br)cc3)c2Cn2cncn2)o1 [Example 74, 2-(5-((1H-1,2,4-Triazol-1-yl)methyl)-1-(4-bromophenyl)-2-(2,4-dichlorophenyl)-1H-imidazol-4-yl)-5-tert-butyl-1,3,4-oxadiazole]
0.00877	FC(F)(F)C1(c2nnc(-c3nc(-c4ccc(Cl)cc4Cl)n(-c4ccc(Br)cc4)c3Cn3cncn3)o2)CC1 [Example 75, 2-(5-((1H-1,2,4-Triazol-1-yl)methyl)-1-(4-bromophenyl)-2-(2,4-dichlorophenyl)-1H-imidazol-4-yl)-5-(1-(trifluoromethyl)cyclopropyl)-1,3,4-oxadiazole]
0.00336	Clc1ccc(C2(c3nnc(-c4nc(-c5ccc(Cl)cc5Cl)n(-c5ccc(Br)cc5)c4Cn4cncn4)o3)CC2)cc1 [Example 77, 2-(5-((1H-1,2,4-Triazol-1-yl)methyl)-1-(4-bromophenyl)-2-(2,4-dichlorophenyl)-1H-imidazol-4-yl)-5-(1-(4-chlorophenyl)cyclopropyl)-1,3,4-oxadiazole]
0.0103	CC(C)(C)c1nnc(-c2nc(-c3ccccc3Cl)n(-c3ccc(Br)cc3)c2Cn2cncn2)o1 [Example 78, 2-(5-((1H-1,2,4-Triazol-1-yl)methyl)-1-(4-bromophenyl)-2-(2-chlorophenyl)-1H-imidazol-4-yl)-5-tert-butyl-1,3,4-oxadiazole]
0.00691	FC(F)(F)C1(c2nnc(-c3nc(-c4ccccc4Cl)n(-c4ccc(Br)cc4)c3Cn3cncn3)o2)CC1 [Example 79, 2-(5-((1H-1,2,4-Triazol-1-yl)methyl)-1-(4-bromophenyl)-2-(2-chlorophenyl)-1H-imidazol-4-yl)-5-(1-(trifluoromethyl)cyclopropyl)-1,3,4-oxadiazole]
0.00336	FC(F)(F)C1(c2nnc(-c3nc(-c4ccccc4Cl)n(-c4ccc(Br)cc4)c3Cn3cncn3)o2)CCC1 [Example 80, 2-(5-((1H-1,2,4-Triazol-1-yl)methyl)-1-(4-bromophenyl)-2-(2-chlorophenyl)-1H-imidazol-4-yl)-5-(1-(trifluoromethyl)cyclobutyl)-1,3,4-oxadiazole]
0.012	CC(C)(C)c1nnc(-c2nc(-c3ccc(Cl)cc3Cl)n(-c3ccc(Cl)cc3)c2Cn2cncn2)o1 [Example 87, 2-(5-((1H-1,2,4-Triazol-1-yl)methyl)-1-(4-chlorophenyl)-2-(2,4-dichlorophenyl)-1H-imidazol-4-yl)-5-tert-butyl-1,3,4-oxadiazole]
